# Assay results published in paper PMC10466336, “Chemical Probe for Imaging of Polo-like Kinase 4 and Centrioles” (JACS Au, 2023).
# Experiments:
# [1] = biological target: T1, endogenous Plk4 in HeLa cells expressing Centrin1-GFP (Homo sapiens, UniProt O00444); test: Live- and fixed-cell confocal/STED imaging of endogenous Plk4; format: cell-based; details: one-step labeling, live cells
# T1 construct: live cell imaging of endogenous Plk4; endogenous in cells; host or cells: HeLa cells stably expressing Centrin1-GFP
# T1 sequence (O00444 1-970): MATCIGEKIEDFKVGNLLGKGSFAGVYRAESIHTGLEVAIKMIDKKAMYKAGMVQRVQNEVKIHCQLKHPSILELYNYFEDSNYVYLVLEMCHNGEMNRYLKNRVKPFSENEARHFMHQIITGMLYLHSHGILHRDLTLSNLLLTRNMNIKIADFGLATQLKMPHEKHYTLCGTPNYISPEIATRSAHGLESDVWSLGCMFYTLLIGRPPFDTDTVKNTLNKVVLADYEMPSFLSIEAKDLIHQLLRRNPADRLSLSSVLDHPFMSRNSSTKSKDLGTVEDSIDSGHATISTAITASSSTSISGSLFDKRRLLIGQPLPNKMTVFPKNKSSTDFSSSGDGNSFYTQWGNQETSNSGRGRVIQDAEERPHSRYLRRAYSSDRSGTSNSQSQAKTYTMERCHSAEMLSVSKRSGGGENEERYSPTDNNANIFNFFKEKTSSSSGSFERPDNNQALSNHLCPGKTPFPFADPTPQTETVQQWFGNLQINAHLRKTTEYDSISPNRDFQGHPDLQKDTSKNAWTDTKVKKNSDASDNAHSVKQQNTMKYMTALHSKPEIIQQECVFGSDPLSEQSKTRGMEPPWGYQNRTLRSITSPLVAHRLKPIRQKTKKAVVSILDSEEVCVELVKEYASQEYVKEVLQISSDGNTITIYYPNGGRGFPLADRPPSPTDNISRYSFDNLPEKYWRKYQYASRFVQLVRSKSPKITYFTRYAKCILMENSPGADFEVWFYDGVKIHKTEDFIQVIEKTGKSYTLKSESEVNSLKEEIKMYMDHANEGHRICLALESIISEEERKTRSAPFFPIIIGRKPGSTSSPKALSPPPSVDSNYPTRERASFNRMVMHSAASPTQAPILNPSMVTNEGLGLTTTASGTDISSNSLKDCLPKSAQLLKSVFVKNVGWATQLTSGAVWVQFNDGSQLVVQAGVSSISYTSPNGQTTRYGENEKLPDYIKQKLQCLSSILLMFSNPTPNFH
# [2] = biological target: T2, 6xHis-tagged Plk4 kinase domain (KD) (Homo sapiens, UniProt O00444); test: Estimation of fluorescence increase (fluorogenicity) with Plk4 kinase domain versus BSA
# T2 construct: Plasmids encoding fragments of Plk4 kinase domain (2-275) with 6xHis-tag were cloned in pET system vectors; made in house; host or cells: E. coli BL21 gold (DE3)
# T2 sequence (O00444 2-275): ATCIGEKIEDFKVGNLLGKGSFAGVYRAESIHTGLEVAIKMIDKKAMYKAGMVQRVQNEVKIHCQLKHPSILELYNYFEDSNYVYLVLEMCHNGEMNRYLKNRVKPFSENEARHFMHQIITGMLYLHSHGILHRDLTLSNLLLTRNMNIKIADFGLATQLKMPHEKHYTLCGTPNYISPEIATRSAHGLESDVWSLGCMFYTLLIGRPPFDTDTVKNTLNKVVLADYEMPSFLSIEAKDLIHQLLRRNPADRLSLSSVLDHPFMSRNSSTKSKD
# Text: Moreover, we substituted the basic acetyl-piperazine nitrogen in compounds (1 and 2a) with an acetyl-piperidine, to avoid probe protonation and accumulation in endolysosomal compartments (Figure S1A, B).[23] This yielded a second generation of centrinone-based probes (compounds 2b–d). These probes were characterized first in vitro by measuring their fluorogenicity in the presence of the 6xHis-tagged Plk4 kinase domain (KD) (Table 1). […] Next, we measured the binding affinities of the probes to the Plk4 kinase domain via a competition binding assay based on fluorescence polarization. […]
# 1.3.5 Estimation of fluorescence increase
# The probes were analysed as described in Lukinavičius et al. 2014 1. Briefly, SiR650 or SiR595- […]
# purified Plk4 kinase domain (10 µM in 20 mM Tris, 200 mM NaCl at pH 7.5) or to a bovine serum albumin (BSA) (Sigma) solution (0.2 mg/mL in 20 mM Tris, 200 mM NaCl at pH 7.5). Final concentration of the probe was 3 µM. The samples were incubated for 1 h at 37 °C, and fluorescence was measured in a 96-well plate (Greiner Bio-One) on a plate reader (TECAN Spark® 20M).
# Fluorescence emission was recorded from 570 nm to 750 nm for SiR595 probes, and 630 nm to 750 nm for SiR650 while exciting at 550 nm ± 10 nm for SiR595 probes and at 610 ± 10 nm for SiR650 probes.
# A fluorescence excitation scan was recorded by measuring the emission at 660 ± 10 nm for SiR595 and 720 ± 10 nm for SiR650 probes, while exciting from 500 nm to 640 nm for SiR595 probes and from […]
structure (smiles),measurement,setting,value
COc1c(Nc2cc(C)[nH]n2)nc(Sc2ccc(S(=O)(=O)Cc3cccc([N+](=O)[O-])c3F)cc2F)nc1N1CCC(CC(=O)NCCNC(=O)c2ccc(C(=O)O)c(C3=C4C=CC(=N)C=C4[Si](C)(C)c4cc(N)ccc43)c2)CC1 [2d],labeling of endogenous Plk4 in live HeLa cells,[1],failed to observe specific labeling
same,increase in fluorescence upon binding,[2]; in presence of Plk4 KD versus BSA,36 fold
same,FPIk4/FBSA,"[2]; mean of F(+Plk4KD)/F(+BSA) and standard deviation, N = 3, probe 3 µM, 1 h 37 °C",36 ± 1
